From patent US10233202B2, “Tenofovir monobenzyl ester phosphamide prodrug, preparation method and use thereof” (JIANGSU TASLY DIYI PHARMACEUTICAL CO., LTD., priority 2015, dated 2019)

Assays:
[1] = Stability in the human blood; type: in vitro ADME; conditions: 2 μM
Description: (§1) The following stability test were carried out according to the prior art, and the data of the stability test shown in the table were the residue percentages after the test compounds were incubated for different period of time under the test condition.

[2] = Cell viability test in MT-4 cells (CellTiter Glo); type: cell-based; conditions: human
Description: 9.3. Treatment of the cells in the cell viability test: parallel tests were carried out using the same method as that in 9.2, except that the 96-well plate containing the compounds of different concentrations were replaced with the blank 96-well plate, and CellTiter Glo was used to determine the cell viability to calculate the CC50 value.
(§2) 9.4. Data analysis and calculation of the inhibition percentage: the activity percentage was calculated using the following formula: Activity (%) =(Raw datacpd−AverageVC)/(AverageCC−AverageVC)*100Cell Viability (%)=Raw datacpd/AverageCC*100

[3] = Stability in the simulated gastric fluid; type: in vitro ADME; conditions: 10 μM
Description: as §1

[4] = Stability in the human liver S9; type: in vitro ADME; conditions: human liver S9, 1 μM
Description: as §1

HIV-1 IIIB = assay: In vitro anti-HIV activity test in MT-4 cells infected with HIV-1 IIIB (CellTiter Glo); type: cell-based; conditions: Human immunodeficiency virus 1, MT4, 120 h; MT-4 cells infected with HIV-1 IIIB, 5 days; read-out: EC50
Description: 9.1. Dilution and concentrations of the compounds and the reference compound (CN01813161GS-7340, TDF) were the same as those in example 1.
9.2. In vitro anti-HIV activity test: after MT-4 cells were infected with 24 TCID50HIV-1 IIIB/1×10^5 cells (2.4 TCID50/well) at 37° C. for 1 hour, they were plated in the 96-well plate containing the compounds of different concentrations ([…]) and cultured at 37° C. in 5% CO2 for 5 days. CellTiter Glo was used to determine the activity to calculate the EC50 value.
as §2

HBV = assay: Cell based anti-HBV activity test, HBV DNA in HepG2.2.15 cell supernatant by qPCR; conditions: Hepatitis B virus, HepG2.2.15, HepG2.2.15 cells; comparative test, Table 4; read-out: EC50
Description: (§3) 8.1. Dilution of the compounds: the initial concentration of each compound in the in vitro anti-HBV activity test was 1 μM, with 3-fold serial dilution to 8 concentrations; the initial concentration of each compound in the cytotoxicity test was 100 μM, with 3-fold serial dilution to 8 concentrations; DMSO was used for the dilution of the compound mother liquor. The initial concentrations of the reference compound TDF for the anti-HBV activity test in vitro and the cytotoxicity test were all set at 0.2 μM, with 3-fold serial dilution to 8 concentrations.
8.2. Anti-HBV activity test in vitro: the HepG2.2.15 cells were plated in the 96-well plate (4×10^4 cells/well), and cultured overnight at 37° C. in 5% CO2. On second day, fresh culture solutions containing compounds of different concentrations were added to the culture wells. See Table 2 for the compound distribution. On 5th day, the used culture solutions in the culture wells were sucked and discarded, and fresh culture solutions containing compounds of different concentrations were added. On 8th day, the supernatant in the culture wells was collected for the extraction of HBV DNA in the supernatant. qPCR test was used to detect the concentration of HBV DNA content in the HepG2.2.15 supernatant.
8.4. Data analysis and calculation of the inhibition percentage and relative cell viability: The inhibition percentage was calculated using the following formula: % Inh.=[(HBV quantity of DMSO control−HBV quantity of sample)/HBV quantity of DMSO control]×100%
9.1 Drugs: the dilution method and concentrations of compound 3, the reference compound (CN201380030061.6, and the compound shown in claim 36 (abbreviation: compound 7), and the isomer thereof) were the same as those in example 1.
(§4) 9.2 Test method: the test was carried out according to the procedure in example 1.

[5] = Stability in the simulated intestinal fluid; type: in vitro ADME; conditions: 10 μM
Description: as §1

hERG K-channel = hERG K-channel (Homo sapiens, UniProt Q12809); assay: hERG manual whole-cell patch clamp in CHO cells (cardiotoxicity study); conditions: IC50, hERG current, room temperature
Description: The CHO cells obtained from AVivaBiosciences that could stably express the hERG K-channel were used in the test, and the cells were incubated at 37° C. in 5% CO2 and under constant humidity.
The final concentration of DMSO in the extracellular fluid was not higher than 0.30%.
The whole-cell patch clamp technique was used on the Multiclamp patch-clamp amplifier to test the compound at room temperature, the output signal was digitalized using the DIgiDAta 1440 A/D-D/A plate, and the Pclamp10 software was used for the control of the recording. The minimum sealing resistance was set at 500 MOh/ms, and the minimum specific hERG current was set at 0.4 nA for quality control.
Clampfit (V10.2, Molecular Devices), Excel 2003 and GraphPad Prism 5.0 were used for the data analysis. The calculation formula of the current: I/Icontrol=Bottom+(Top−Bottom)/(1+10^((LogIC50−Log C)*Hillslope

in vitro = type: cell-based; conditions: human; HepG2.2.15 cells, Cell-titer Blue on 8th day; Table 3
Description: (§5) The concentration of HBV DNA in the HepG2.2.15 cell supernatant was detected through the real-time fluorescence quantitative PCR (qPCR) method to determine the anti-HBV activity of the compound in the HepG2.2.15 cells, and the effect of the testing compounds to the HepG2.2.15 cell activity was detected through Cell-titer Blue.
as §3
(§6) 8.3. Treatment of the cells in the cell viability test: the HepG2.2.15 cells were plated in the 96-well plate (4×10^4 cells/well), and cultured overnight at 37° C. in 5% CO2. On 2nd day, fresh culture solutions containing compounds of different concentrations were added to the culture wells. See Table 3 for the compound distribution. On 5th day, the used culture solutions in the culture wells were sucked and discarded, and fresh culture solutions containing compounds of different concentrations were added. On 8th day, Cell-titer Blue agent was added to each well, and the microplate reader was used to detect the fluorescence value of each well.
(§7) The cell viability percentage was calculated using the following formula: % cell viability=(fluorescence of sample−fluorescence of medium control)/(fluorescence of DMSO control−fluorescence of medium control)[…] 100%
as §4

HepG2.2.15 cells = assay: in vitro; type: cell-based; conditions: comparative test, Table 4
Description: as §5, §3, §6, §7, §4

hERG K-channel, sequence (Q12809 whole entry): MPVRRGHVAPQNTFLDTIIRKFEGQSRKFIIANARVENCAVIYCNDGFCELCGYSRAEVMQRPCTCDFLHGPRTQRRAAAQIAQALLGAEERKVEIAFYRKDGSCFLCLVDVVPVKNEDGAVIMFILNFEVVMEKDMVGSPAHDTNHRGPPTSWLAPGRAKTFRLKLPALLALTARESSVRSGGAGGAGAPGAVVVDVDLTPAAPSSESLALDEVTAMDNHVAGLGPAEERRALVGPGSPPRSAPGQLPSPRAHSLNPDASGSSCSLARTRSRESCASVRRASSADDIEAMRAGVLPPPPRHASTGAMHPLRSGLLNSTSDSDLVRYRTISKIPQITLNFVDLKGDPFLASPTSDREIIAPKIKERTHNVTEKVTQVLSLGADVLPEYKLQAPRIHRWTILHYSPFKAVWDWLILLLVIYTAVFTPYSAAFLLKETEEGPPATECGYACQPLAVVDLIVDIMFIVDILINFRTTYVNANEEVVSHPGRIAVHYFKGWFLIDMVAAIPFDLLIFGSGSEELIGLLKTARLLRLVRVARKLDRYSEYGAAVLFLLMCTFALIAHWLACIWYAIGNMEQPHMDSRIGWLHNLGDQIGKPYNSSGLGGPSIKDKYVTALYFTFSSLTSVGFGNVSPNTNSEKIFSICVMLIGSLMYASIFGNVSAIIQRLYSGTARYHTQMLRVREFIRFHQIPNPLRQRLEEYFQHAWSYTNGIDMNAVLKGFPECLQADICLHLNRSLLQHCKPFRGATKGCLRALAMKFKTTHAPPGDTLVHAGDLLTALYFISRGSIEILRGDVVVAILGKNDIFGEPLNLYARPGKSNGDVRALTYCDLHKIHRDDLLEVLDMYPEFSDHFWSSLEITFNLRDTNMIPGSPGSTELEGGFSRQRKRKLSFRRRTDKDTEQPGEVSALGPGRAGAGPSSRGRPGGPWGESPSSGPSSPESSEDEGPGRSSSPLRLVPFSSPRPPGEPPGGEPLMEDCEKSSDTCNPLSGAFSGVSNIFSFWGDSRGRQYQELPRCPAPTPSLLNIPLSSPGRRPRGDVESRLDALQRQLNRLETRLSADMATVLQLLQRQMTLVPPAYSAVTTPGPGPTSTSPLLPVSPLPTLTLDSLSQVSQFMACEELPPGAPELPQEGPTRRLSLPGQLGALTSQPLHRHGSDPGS

With `CC(C)OC(=O)[C@H](C)N[P@@](=O)(CO[C@H](C)Cn1cnc2c(N)ncnc21)OCc1ccccc1` (single isomer, unassigned) [Compound 3a] as the compound, how does the “% 0 min (residue percentage)” value ([1]; 0 min) read?
Its value is 100%.

And the “% 10 min (residue percentage)” value ([1]; 10 min)?
Its value is 97.4%.

What about the “% 30 min (residue percentage)” value ([1]; 30 min) of the same compound?
Its value is 98.9%.

And the “% 60 min (residue percentage)” value ([1]; 60 min)?
The value was 97.8%.

What about the “% 120 min (residue percentage)” value ([1]; 120 min) of the same compound?
Its value is 94.5%.

What about the CC50 at 5 days [2] of the same compound?
The CC50 at 5 days was 22.5 µM.

What about the “% 0 min (residue percentage)” value ([3]; 0 min) of the same compound?
The value was 100%.

What about the “% 60 min (residue percentage)” value ([3]; 60 min) of the same compound?
Its value is 85.40%.

What about the “% 120 min (residue percentage)” value ([3]; 120 min) of the same compound?
The value was 58.07%.

What about the “% 360 min (residue percentage)” value ([3]; 360 min) of the same compound?
Its value is 14.41%.

What about the “% 1440 min (residue percentage)” value ([3]; 1440 min) of the same compound?
Its value is 0.00%.

And the “CLlint(s9)” value [4]?
Its value is 70.0 µL/min/mg.

And the half-life at 1 μM [4]?
Its half-life at 1 μM is 9.9 min.

What about the “Remaining (T = 60 min)” value ([4]; 60 min) of the same compound?
The value was 6%.

What about the “CLlint(s9)” value ([4]; scaled per kg) of the same compound?
Its value is 0.2464 mL/min/kg.

And the EC50 (HIV-1 IIIB)?
Its EC50 is 0.00513 µM.

What about the EC50 (HBV) of the same compound?
The EC50 was 0.00339 µM.

What about the “% 0 min (residue percentage)” value ([5]; 0 min) of the same compound?
Its value is 100%.

And the “% 60 min (residue percentage)” value ([5]; 60 min)?
The value was 53.62%.

And the “% 120 min (residue percentage)” value ([5]; 120 min)?
Its value is 23.45%.

And the “% 360 min (residue percentage)” value ([5]; 360 min)?
The value was 1.26%.

What about the “% 1440 min (residue percentage)” value ([5]; 1440 min) of the same compound?
Its value is 0.00%.

What about the IC50 (hERG K-channel) of the same compound?
Its IC50 is greater than 10 µM.

What about the CC50 (in vitro) of the same compound?
The CC50 was greater than 100 µM.

What about the CC50 (HepG2.2.15 cells) of the same compound?
The CC50 was greater than 100 µM.
